No end group written: not given here.
Test system: adjuvant arthritis (Freund's complete adjuvant)
Assay: Protective effect of peptide A on adjuvant arthritis in rats
Format: in vivo, SD rats
Details: for ankle joint swelling value: X±SD; for ankle joint swelling value / Lesion scoring ( X ± SD), joint lesion severity: n=10; for inhibition rate of ankle joint swelling: vs model group; for Lesion scoring ( X ± SD), joint lesion severity: 32nd day, left rear ankle joint histopathology, lower score = milder
Procedure: SPF-level SD rats, each weighting 180 g-220 g, with male and female each in half, provided by Experimental Animal Center of Chinese Academy of Military Medical.
Peptide A (which was prepared with the same procedure as in Embodiment 1). It was to be dissolved in physiological saline when used.
SD rats, with male and female each in half, were randomly divided into five groups with 10 rats in each group, respectively were model group (employing physiological saline and Freund's complete adjuvant); control group (employing the same volume of physiological saline as the model group); peptide A high, medium and low dose groups (employing Freund's complete adjuvant and peptide A, wherein each group was given different doses of peptide A, respectively were 174 μg/kg·d, 87 μg/kg·d and 43.5 μg/kg·d, peptide A was dissolved in physiological saline to form peptide A solution with desired concentration). Peptide A solution in each dose was administered by subcutaneous injection, 0.1 ml of peptide A solution per 100 g body weight of rats. The control group employed the same amount of physiological saline as the peptide A solution (0.1 ml of physiological saline per 100 g body weight of rats).
Each group rats were administered according to the following manner. These rats were normally fed every day during the administration.
On the 1st day (including this day), except the control group, for rats of other groups (the model group and the peptide A high, medium and low dose groups), 0.5 ml of Freund's complete adjuvant was subcutaneously injected into plantar skin of right rear foot of every rat. Then, they were subcutaneously injected with 0.05 ml of Freund's complete adjuvant for one time every other day, a total of 15 times.
From the 2nd day (including this day), the rats of peptide A high, medium and low dose groups each were administered with corresponding the dose of peptide A. Then, they were subcutaneously injected with the dose the amount of peptide A for one time every other day, a total of 15 times. At the same time, the rats of the control group and the model group were subcutaneously injected the same amount of physiological saline as that of the peptide A for the high, medium and low dose groups for one time every other day, a total of 15 times.
Measurement for the experimental results was conducted as follows. Firstly, before administration to rats of each group, left rear ankle circumference […] of each rat was measured by a flexible rule as a base value, and then circumference of left rear ankle with inflammation of each rat was measured at the 4th, 8th, 12th, 16th, 20th, 24th, 28th, and 32nd day, respectively. Swelling value obtained by circumference after inflammation minus circumference before inflammation was used to observe changes of primary and secondary inflammation of Freund's complete adjuvant-induced rats.
Secondly, at the 32nd day, rats of each group were killed, and their left rear foot ankle joints ware quickly taken out, fixed in 10% formalin and then embedded in paraffin after decalcification, sectioned and stained with HE. The proliferation of synovial tissue, degeneration of covering epithelial cells (synovial cells), congestion of interstitial substance, inflammatory cell infiltration, damage or fibrosis of arthrodial cartilage, and inflammatory cell infiltration or fibrosis of subcutaneous tissue around the joint, were observed. According to severity of joint lesions, the lesions were scored as “1 score (few or mild lesion)”, “2 scores (moderate or medium lesion)”, “3 scores (large or severe lesion)”, and “4 scores (very severe lesion)”. Very mild lesion was scored as “0.5”, and no lesion tissue was scored as “0”. Accumulate all scores to obtain a total score for one group, and then calculate average score ( X±SD) for each animal in each group. The lower score indicates the milder grade of the lesion. […]

[1] = high dose 174 μg/kg·d s.c., the 4th day
[2] = high dose 174 μg/kg·d s.c., the 8th day
[3] = high dose 174 μg/kg·d s.c., the 12th day
[4] = high dose 174 μg/kg·d s.c., the 16th day
[5] = high dose 174 μg/kg·d s.c., the 20th day
[6] = high dose 174 μg/kg·d s.c., the 24th day
[7] = high dose 174 μg/kg·d s.c., the 28th day
[8] = high dose 174 μg/kg·d s.c., the 32nd day
[9] = low dose 43.5 μg/kg·d s.c., the 4th day
[10] = low dose 43.5 μg/kg·d s.c., the 8th day
[11] = low dose 43.5 μg/kg·d s.c., the 12th day
[12] = low dose 43.5 μg/kg·d s.c., the 16th day
[13] = low dose 43.5 μg/kg·d s.c., the 20th day
[14] = low dose 43.5 μg/kg·d s.c., the 24th day
[15] = low dose 43.5 μg/kg·d s.c., the 28th day
[16] = low dose 43.5 μg/kg·d s.c., the 32nd day
[17] = medium dose 87 μg/kg·d s.c., the 4th day
[18] = medium dose 87 μg/kg·d s.c., the 8th day
[19] = medium dose 87 μg/kg·d s.c., the 12th day
[20] = medium dose 87 μg/kg·d s.c., the 16th day
[21] = medium dose 87 μg/kg·d s.c., the 20th day
[22] = medium dose 87 μg/kg·d s.c., the 24th day
[23] = medium dose 87 μg/kg·d s.c., the 28th day
[24] = medium dose 87 μg/kg·d s.c., the 32nd day

GQTYTSG [Peptide A]
arthritis lesion (histopathology) after administration (all dose groups, effect in descending order high, medium, low): reduced in different degrees
ankle joint swelling value [1]: 8.5 ± 1.5 mm
inhibition rate of ankle joint swelling [1]: (17.5%)
ankle joint swelling value [2]: 10.2 ± 1.7 mm
inhibition rate of ankle joint swelling [2]: (28.2%)
ankle joint swelling value [3]: 10.8 ± 1.5 mm
inhibition rate of ankle joint swelling [3]: (31.6%)
ankle joint swelling value [4]: 11.1 ± 1.6 mm
inhibition rate of ankle joint swelling [4]: (39.7%)
ankle joint swelling value [5]: 11.4 ± 1.8 mm
inhibition rate of ankle joint swelling [5]: (37.4%)
ankle joint swelling value [6]: 10.8 ± 1.7 mm
inhibition rate of ankle joint swelling [6]: (38.3%)
ankle joint swelling value [7]: 10.4 ± 1.8 mm
inhibition rate of ankle joint swelling [7]: (37.7%)
ankle joint swelling value [8]: 9.5 ± 1.9 mm
inhibition rate of ankle joint swelling [8]: (39.9%)
Lesion scoring ( X ± SD), joint lesion severity (high dose group (174 μg/kg·d s.c.)): 3.60 ± 1.26
inhibition rate to the joint swelling (high dose group (174 μg/kg·d)): ~40%
joint swelling compared with rats of the model group (high, medium and low dose groups, observation): significantly reduced joint swelling
skin ulcer symptom (high, medium and low dose groups, part of model rats had skin ulcers on the 24th day): did not have skin ulcer symptom
ankle joint swelling value [9]: 9.3 ± 1.4 mm
inhibition rate of ankle joint swelling [9]: (9.7%)
ankle joint swelling value [10]: 13.5 ± 2.1 mm
inhibition rate of ankle joint swelling [10]: (4.9%)
ankle joint swelling value [11]: 13.9 ± 1.6 mm
inhibition rate of ankle joint swelling [11]: (12.0%)
ankle joint swelling value [12]: 14.2 ± 1.7 mm
inhibition rate of ankle joint swelling [12]: (22.8%)
ankle joint swelling value [13]: 14.6 ± 2.3 mm
inhibition rate of ankle joint swelling [13]: (19.8%)
ankle joint swelling value [14]: 14.2 ± 1.4 mm
inhibition rate of ankle joint swelling [14]: (18.8%)
ankle joint swelling value [15]: 14.0 ± 1.8 mm
inhibition rate of ankle joint swelling [15]: (16.2%)
ankle joint swelling value [16]: 13.8 ± 1.5 mm
inhibition rate of ankle joint swelling [16]: (12.6%)
Lesion scoring ( X ± SD), joint lesion severity (low dose group (43.5 μg/kg·d s.c.)): 4.10 ± 0.99
ankle joint swelling value [17]: 8.9 ± 1.6 mm
inhibition rate of ankle joint swelling [17]: (13.6%)
ankle joint swelling value [18]: 11.9 ± 1.8 mm
inhibition rate of ankle joint swelling [18]: (16.2%)
ankle joint swelling value [19]: 12.1 ± 2.3 mm
inhibition rate of ankle joint swelling [19]: (23.4%)
ankle joint swelling value [20]: 12.9 ± 1.8 mm
inhibition rate of ankle joint swelling [20]: (29.9%)
ankle joint swelling value [21]: 13.2 ± 1.4 mm
inhibition rate of ankle joint swelling [21]: (27.5%)
ankle joint swelling value [22]: 13.0 ± 1.8 mm
inhibition rate of ankle joint swelling [22]: (25.7%)
ankle joint swelling value [23]: 12.8 ± 1.6 mm
inhibition rate of ankle joint swelling [23]: (23.4%)
ankle joint swelling value [24]: 12.5 ± 1.8 mm
inhibition rate of ankle joint swelling [24]: (20.9%)
Lesion scoring ( X ± SD), joint lesion severity (medium dose group (87 μg/kg·d s.c.)): 4.00 ± 0.67
